The values below come from patent US10556883B2, “Benzenesulfonamide compounds, method for synthesizing same, and use thereof in medicine and cosmetics” (GALDERMA RESEARCH & DEVELOPMENT, priority 2016, dated 2020).

One test has as its target TACE enzyme (Homo sapiens (Human), UniProt P78536). Particulars: WO 00/44709, page 251, table 10, example 61; cited from earlier work.
The target of test [1] is Recombinant Human catalytic domains of MMP1 (Homo sapiens (Human), UniProt P03956). Put plainly: MMP1 isolated enzyme assay, profluorescent peptidic substrate. The following applies: 10 minutes incubation at room temperature; read-out: MMP1 enz IC50. The class given is biochemical. From the text:
Activity of the compounds was investigated using MMP1 isolated enzyme.

In test [2] the target is Recombinant Human ADAM17 catalytic domain (Homo sapiens (Human), UniProt P78536). Put plainly: TACE (ADAM17) isolated enzyme assay, profluorescent peptidic substrate. Particulars: read-out: TACE enz IC50; ADAM17 catalytic domain 500 nM, 40 μM substrate, two hours.
Sequence of Recombinant Human ADAM17 catalytic domain (P78536 223-474): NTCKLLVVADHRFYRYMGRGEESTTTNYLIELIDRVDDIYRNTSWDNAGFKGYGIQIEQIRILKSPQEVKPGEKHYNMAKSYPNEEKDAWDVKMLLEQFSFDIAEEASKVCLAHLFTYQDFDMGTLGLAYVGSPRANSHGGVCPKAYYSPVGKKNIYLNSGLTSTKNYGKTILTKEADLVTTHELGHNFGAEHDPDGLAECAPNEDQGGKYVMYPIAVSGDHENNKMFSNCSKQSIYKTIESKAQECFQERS
Method: Activity of the compounds was investigated using TACE (ADAM17) isolated enzyme. […] Mca fluorescence was quenched by the Dpa group until cleavage by ADAM17 at the Ala-Val bond separates the two moieties.
The enzymatic reaction was performed in 384-well microplates with a final volume of 10 μL containing 1% DMSO. Recombinant Human ADAM17 catalytic domain (500 nM) was assayed with 40 μM of substrate and serial dilutions of tested inhibitors (from 10000 nM to 0.04 nM). After two hours of incubation at room temperature, the fluorescence was measured using a microplate reader (320/425 nm).
Data were normalized using the average of positive controls (enzyme with no inhibitor) and negative controls (no enzyme). IC50 were calculated using a four-parameters logistic model.
In test [3] the test system is TNFα secretion from LPS stimulated frozen Peripheral Blood Mononuclear Cells (PBMC). The experiment in a line: inhibition of TNFα secretion from LPS stimulated human PBMC (hPBMC assay). The class given is cell-based. Particulars: LPS 1 μg/mL, overnight incubation, TNFα by HTRF. On the procedure:
Activity of the compounds was investigated using human peripheral blood mononuclear cells (hPBMC). This assay was designed to measure the inhibition of the TNFα secretion from LPS stimulated frozen Peripheral Blood Mononuclear Cells (PBMC) isolated from human blood. TNFα levels were measured using HTRF® Human TNFα kit (Cisbio #62TNFPEC) which is a rapid and quantitative sandwich immunoassay based on TR-FRET technology.
Frozen PBMC were quickly thawed, resuspended in culture medium (RPMI 10% inactivated FBS) and viable cells were seeded in 96-well plates (50,000 cells/well). […] After overnight incubation at 37° C., 10 μL of cell supernatant were mixed with 5 μL of each tagged anti-TNFα specific antibody as recommended by the supplier. After 2 hours of incubation at room temperature, the HTRF® signals were measured using a microplate reader (wavelengths: excitation=337 nm, first emission=620 nm, second emission=665 nm).

Sequence of Recombinant Human catalytic domains of MMP1 (P03956 98-276): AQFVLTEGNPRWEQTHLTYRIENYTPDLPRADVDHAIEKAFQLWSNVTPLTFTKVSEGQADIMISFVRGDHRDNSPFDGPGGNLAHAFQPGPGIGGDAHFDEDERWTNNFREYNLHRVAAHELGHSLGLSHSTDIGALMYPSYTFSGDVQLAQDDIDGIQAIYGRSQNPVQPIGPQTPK
Sequence of TACE enzyme (P78536 215-824): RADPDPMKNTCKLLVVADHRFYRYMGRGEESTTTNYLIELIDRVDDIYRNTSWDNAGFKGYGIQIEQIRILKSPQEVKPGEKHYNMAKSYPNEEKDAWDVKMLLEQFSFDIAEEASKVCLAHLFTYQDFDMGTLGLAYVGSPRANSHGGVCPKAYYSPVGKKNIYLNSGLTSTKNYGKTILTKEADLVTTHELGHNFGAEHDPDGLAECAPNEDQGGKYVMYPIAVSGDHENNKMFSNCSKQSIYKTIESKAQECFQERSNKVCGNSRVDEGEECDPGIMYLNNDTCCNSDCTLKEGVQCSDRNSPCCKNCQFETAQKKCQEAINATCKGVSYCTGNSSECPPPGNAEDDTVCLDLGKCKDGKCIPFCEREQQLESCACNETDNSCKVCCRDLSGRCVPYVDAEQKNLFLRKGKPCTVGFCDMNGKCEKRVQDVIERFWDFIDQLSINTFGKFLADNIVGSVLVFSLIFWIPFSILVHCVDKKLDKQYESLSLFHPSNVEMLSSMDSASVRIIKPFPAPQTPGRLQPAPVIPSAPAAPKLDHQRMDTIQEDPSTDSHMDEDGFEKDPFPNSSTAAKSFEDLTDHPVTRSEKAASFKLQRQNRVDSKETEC

As to `CC1(C)SCCN(S(=O)(=O)c2ccc(OCC#CCO)cc2)[C@H]1C(=O)NO` [Apratastat], the “selectivity for the TACE enzyme compared with certain MMPs” value at TACE enzyme was “not selective”.
On to `Cc1cc(COc2ccc(S(=O)(=O)NC3(C(=O)NO)CN(C(=O)C(C)C)C3)cc2)c2ccccc2n1` [Example 7b, N-hydroxy-1-isobutyryl-3-((4-((2-methylquinolin-4-yl)methoxy)phenyl)sulfonamido)azetidine-3-carboxamide], for which the half-inhibitory concentration (IC50) was more than 10 µM in test [1], 5.2 nM in test [2] and less than 50 nM in test [3].
The corresponding values for `Cc1cc(COc2ccc(S(=O)(=O)NC3(CC(=O)NO)CN(C(=O)N4CCN(C)CC4)C3)cc2)c2ccccc2n1` [Example 10, N-hydroxy-2-(1-(4-methylpiperazine-1-carbonyl)-3-((4-((2-methylquinolin-4-yl)methoxy)phenyl)sulfonamido)azetidin-3-yl)acetamide] are more than 10 µM, 2.8 nM and less than 50 nM.
The corresponding values for `Cc1cc(COc2ccc(S(=O)(=O)NC3(CC(=O)NO)CN(C(=O)CC(C)(C)C)C3)cc2)c2ccccc2n1` [Example 11, 2-(1-(3,3-dimethylbutanoyl)-3-((4-((2-methylquinolin-4-yl)methoxy)phenyl)sulfonamido)azetidin-3-yl)-N-hydroxyacetamide] are more than 10 µM, 8.2 nM and less than 50 nM.
Take `Cc1cc(COc2ccc(S(=O)(=O)NC3(CC(=O)NO)CN(C(=O)C(C)(C)N(C)C)C3)cc2)c2ccccc2n1` [Example 18, 2-(1-(2-(dimethylamino)-2-methylpropanoyl)-3-((4-((2-methylquinolin-4-yl)methoxy)phenyl)sulfonamido)azetidin-3-yl)-N-hydroxyacetamide]: the IC50 is more than 10 µM in test [1], 3.5 nM in test [2] and less than 50 nM in test [3].
The corresponding values for `Cc1cc(COc2ccc(S(=O)(=O)NC3(C(=O)NO)CN(C(=O)CC4CCC4)C3)cc2)c2ccccc2n1` [Example 26f, 1-(2-cyclobutylacetyl)-N-hydroxy-3-((4-((2-methylquinolin-4-yl)methoxy)phenyl)sulfonamido)azetidine-3-carboxamide] are more than 10 µM, 11.4 nM and less than 50 nM.
The matching figures for `CCN1CCN(C(=O)N2CC(CC(=O)NO)(NS(=O)(=O)c3ccc(OCc4cc(C)nc5ccccc45)cc3)C2)CC1` [Example 28b, 2-(1-(4-ethylpiperazine-1-carbonyl)-3-((4-((2-methylquinolin-4-yl)methoxy)phenyl)sulfonamido)azetidin-3-yl)-N-hydroxyacetamide]: more than 10 µM, 5.6 nM and less than 50 nM.
For `Cc1cc(COc2ccc(S(=O)(=O)NC3(CC(=O)NO)CN(C(=O)N4CCN(C)CC4)C3)cc2)c2cccc(C)c2n1` [Example 31, 2-(3-((4-((2,8-dimethylquinolin-4-yl)methoxy)phenyl)sulfonamido)-1-(4-methylpiperazine-1-carbonyl)azetidin-3-yl)-N-hydroxyacetamide], the IC50 in test [3] lay in the range of 50 to 100 nM.

For orientation: IC50 means the concentration that inhibits the measured activity by half.
